We go through 9 molecules from US20240116921A1, “LACTAM (HETERO)[…] DERIVATIVES AS INHIBITORS OF ERBB2” (EnLiven Therapeutics, Inc., priority 2020, published 2024).

The target in assay [1] is Ba/F3 ERBB2 A775_G776insYVMA (Homo sapiens, UniProt P04626, DUP772-775, cells depend on it). The assay is described as follows: Cell viability assay, Ba/F3 ERBB2 A775_G776insYVMA. The class given is cell-based, mouse. The settings on record: Ba/F3 ERBB2 YVMA cells, cell viability, 72 hours, CellTiter Glo; Table B5; read-out: Ba/F3 ERBB2 YVMA, IC50. The essentials:
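IL-3-independent Ba/F3 lines stably expressing the human ERBB2 insertion mutants were seeded at 3000 cells/well and exposed to compounds for 72 h at 37 °C, 5% CO2. Viability was read as ATP by CellTiter-Glo luminescence. Curves were fitted by sigmoidal nonlinear regression.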
Background: In ATP-based viability assays light output follows the ATP content of the culture.

Assay [2] addresses T1, phosphorylated ERBB2 (pERBB2) (Homo sapiens, UniProt P04626).
T1 construct: endogenous in cells; host or cells: BT-474
Description: Detection of phosphorylated ERBB2 (pERBB2) by ELISA in BT-474 cells. The class given is cell-based. The settings on record: four hours incubation. The essentials:
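BT-474 cells (2.0×10^4/well) treated 4 h at 37 °C, 5% CO2 with compounds in four-fold dilutions from 10 µM to 0.01 nM. Lysate pERBB2 measured by ELISA with TMB read at 450 nm; % relative activity scaled between no-cell wells and 0.1% DMSO-treated cells.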
(In general: An ELISA detects its analyte on a solid surface through an enzyme-linked reagent.)

For assay [3], the target named is T2, phosphorylated EGFR (pEGFR) (Homo sapiens, UniProt P00533).
T2 construct: performed to measure phosphorylated EGFR levels using A431 cells (10% FBS); endogenous in cells; host or cells: A431
T2 sequence (P00533 25-1210): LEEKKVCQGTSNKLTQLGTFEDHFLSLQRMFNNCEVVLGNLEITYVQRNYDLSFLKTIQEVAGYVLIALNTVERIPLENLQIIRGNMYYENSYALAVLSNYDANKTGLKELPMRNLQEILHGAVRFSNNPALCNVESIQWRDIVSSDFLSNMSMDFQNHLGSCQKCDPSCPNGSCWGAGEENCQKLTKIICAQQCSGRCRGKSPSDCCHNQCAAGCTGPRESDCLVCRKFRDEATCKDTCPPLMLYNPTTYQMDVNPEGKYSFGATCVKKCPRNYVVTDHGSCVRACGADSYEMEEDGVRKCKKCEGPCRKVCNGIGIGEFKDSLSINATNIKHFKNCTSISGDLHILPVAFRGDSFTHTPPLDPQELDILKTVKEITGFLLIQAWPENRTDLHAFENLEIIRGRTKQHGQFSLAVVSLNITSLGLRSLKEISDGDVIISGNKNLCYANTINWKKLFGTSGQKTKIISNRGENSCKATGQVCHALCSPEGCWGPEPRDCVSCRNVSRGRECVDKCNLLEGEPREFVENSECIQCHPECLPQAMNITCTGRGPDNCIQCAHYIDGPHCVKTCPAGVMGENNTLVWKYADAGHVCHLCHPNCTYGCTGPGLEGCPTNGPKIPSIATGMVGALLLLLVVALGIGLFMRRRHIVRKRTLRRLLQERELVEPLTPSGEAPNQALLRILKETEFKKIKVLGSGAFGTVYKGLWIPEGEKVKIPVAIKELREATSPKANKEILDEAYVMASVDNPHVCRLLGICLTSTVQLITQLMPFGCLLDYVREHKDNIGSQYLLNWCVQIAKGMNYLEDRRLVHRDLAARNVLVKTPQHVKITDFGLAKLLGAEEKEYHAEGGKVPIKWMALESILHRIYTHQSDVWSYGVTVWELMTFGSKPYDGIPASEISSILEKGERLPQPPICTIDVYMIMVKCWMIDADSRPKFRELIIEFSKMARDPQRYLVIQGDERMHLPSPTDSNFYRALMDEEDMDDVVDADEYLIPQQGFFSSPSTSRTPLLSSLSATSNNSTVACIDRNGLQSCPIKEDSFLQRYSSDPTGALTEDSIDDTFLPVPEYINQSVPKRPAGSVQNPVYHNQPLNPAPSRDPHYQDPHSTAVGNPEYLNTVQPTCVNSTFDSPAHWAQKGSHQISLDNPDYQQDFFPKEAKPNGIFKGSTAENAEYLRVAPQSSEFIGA
The assay is described as follows: Detection of phosphorylated EGFR (pEGFR) in EGF-stimulated A431 cells. The class given is cell-based. To be noted: A431 cells (10% FBS), 4 hours incubation, EGF 30 ng/mL 10 minutes, AlphaLISA. The essentials:
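A431 cells in 10% FBS were preincubated with compound for 4 h at 37 °C, then stimulated with EGF (30 ng/mL final) for 10 min. pEGFR in lysates was read by AlphaLISA. % inhibition was calculated against DMSO and staurosporine-treated controls, and IC50 came from a four-parameter curve fit.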
A general note: In Alpha technology, singlet oxygen from a donor bead excites a nearby acceptor bead.

Structures are written as SMILES. Bounds are passed on as bounds.

Usually IC50 stands for the concentration needed to halve the response being measured. A low value points to higher potency.

T1 sequence (P04626 23-1255): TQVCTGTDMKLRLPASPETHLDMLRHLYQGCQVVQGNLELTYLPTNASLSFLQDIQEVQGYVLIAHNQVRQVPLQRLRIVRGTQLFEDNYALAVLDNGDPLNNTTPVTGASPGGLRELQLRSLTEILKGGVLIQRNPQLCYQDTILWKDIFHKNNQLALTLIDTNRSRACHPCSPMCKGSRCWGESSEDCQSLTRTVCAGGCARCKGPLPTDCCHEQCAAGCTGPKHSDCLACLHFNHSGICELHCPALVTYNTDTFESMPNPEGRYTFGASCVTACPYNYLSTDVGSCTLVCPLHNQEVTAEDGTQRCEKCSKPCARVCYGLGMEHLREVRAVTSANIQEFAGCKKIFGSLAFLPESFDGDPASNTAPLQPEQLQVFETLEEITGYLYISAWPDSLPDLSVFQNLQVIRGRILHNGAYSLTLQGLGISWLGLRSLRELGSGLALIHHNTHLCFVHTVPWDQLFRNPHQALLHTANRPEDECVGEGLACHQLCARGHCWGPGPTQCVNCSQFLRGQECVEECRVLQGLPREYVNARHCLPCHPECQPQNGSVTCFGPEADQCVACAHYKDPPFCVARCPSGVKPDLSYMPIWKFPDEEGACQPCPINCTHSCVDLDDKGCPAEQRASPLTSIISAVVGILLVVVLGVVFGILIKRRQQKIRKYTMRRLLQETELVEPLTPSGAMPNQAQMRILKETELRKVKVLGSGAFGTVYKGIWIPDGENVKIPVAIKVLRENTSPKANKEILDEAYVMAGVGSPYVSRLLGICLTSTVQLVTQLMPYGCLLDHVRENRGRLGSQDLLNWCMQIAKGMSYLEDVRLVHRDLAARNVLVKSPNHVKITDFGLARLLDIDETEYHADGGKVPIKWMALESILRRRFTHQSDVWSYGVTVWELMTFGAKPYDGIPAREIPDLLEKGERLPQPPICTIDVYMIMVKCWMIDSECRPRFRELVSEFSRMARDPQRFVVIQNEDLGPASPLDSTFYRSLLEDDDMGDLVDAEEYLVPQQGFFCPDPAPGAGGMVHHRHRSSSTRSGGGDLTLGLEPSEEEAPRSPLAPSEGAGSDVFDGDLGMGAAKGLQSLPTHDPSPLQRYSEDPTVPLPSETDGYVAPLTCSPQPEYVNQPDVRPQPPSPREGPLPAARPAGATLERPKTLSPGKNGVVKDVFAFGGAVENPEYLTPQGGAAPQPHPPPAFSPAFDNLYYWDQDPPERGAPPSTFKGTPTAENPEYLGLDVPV
Sequence of Ba/F3 ERBB2 A775_G776insYVMA (P04626 with tags, fused parts or gaps DUP772-775): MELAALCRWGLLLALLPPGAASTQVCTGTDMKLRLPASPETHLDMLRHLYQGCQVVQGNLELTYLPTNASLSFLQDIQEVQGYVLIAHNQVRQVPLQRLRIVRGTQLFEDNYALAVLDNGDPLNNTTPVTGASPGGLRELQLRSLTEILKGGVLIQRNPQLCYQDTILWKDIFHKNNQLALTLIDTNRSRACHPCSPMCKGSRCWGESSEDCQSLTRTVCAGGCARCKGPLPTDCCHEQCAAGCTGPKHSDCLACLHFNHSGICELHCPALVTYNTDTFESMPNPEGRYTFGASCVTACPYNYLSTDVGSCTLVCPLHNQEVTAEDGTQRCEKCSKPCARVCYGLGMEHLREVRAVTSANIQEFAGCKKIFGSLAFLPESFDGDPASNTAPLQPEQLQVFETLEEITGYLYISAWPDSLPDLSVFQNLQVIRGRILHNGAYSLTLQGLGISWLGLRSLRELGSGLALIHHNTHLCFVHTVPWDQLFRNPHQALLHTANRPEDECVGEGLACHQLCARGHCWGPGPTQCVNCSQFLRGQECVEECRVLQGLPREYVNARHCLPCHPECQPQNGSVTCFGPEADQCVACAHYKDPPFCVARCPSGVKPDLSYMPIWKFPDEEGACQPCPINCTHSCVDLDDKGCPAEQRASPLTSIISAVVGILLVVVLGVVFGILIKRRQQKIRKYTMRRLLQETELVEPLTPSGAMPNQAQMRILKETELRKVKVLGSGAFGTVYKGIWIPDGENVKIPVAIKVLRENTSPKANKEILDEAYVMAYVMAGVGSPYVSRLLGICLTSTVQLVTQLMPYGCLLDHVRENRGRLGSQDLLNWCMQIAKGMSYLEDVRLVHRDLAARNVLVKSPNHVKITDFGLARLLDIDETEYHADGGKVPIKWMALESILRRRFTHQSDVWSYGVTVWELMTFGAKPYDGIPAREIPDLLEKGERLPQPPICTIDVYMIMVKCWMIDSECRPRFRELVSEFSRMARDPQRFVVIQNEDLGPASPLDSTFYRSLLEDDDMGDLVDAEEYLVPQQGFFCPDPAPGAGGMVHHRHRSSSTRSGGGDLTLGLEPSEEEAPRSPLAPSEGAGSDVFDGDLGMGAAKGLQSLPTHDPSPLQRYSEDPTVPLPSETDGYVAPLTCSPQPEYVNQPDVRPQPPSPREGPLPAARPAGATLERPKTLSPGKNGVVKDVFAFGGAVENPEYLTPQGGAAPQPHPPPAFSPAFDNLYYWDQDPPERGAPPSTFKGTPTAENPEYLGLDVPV

For the molecule `CN(C)C/C=C1\CCN(c2ccc3ncnc(Nc4ccc(Oc5cccnc5)c(F)c4)c3n2)C1=O` [Compound 126, (3E)-3-[2-(dimethylamino)ethylidene]-1-(4-{[3-fluoro-4-(pyridin-3-yloxy)phenyl]amino}pyrido[3,2-d]pyrimidin-6-yl)pyrrolidin-2-one], in assay [1], the GI50 worked out at 34 nM. Further, the concentration for half-maximal inhibition (IC50) is 99.1 nM in assay [2] and 1110 nM in assay [3].

Regarding `C=C1CCCN(c2cc3c(Nc4ccc(Oc5ccc6c(c5)ncn6C)c(C)c4)ncnc3cn2)C1=O` [Compound 127, 1-[4-({3-methyl-4-[(1-methyl-1,3-benzodiazol-5-yl)oxy]phenyl}amino)pyrido[3,4-d]pyrimidin-6-yl]-3-methylidenepiperidin-2-one], the GI50 in assay [1] was 24.3 nM. Also, the figures for the concentration for half-maximal inhibition (IC50) in assay [2] and in assay [3] were 27 nM and 1200 nM, respectively.

As to `CN(C)C/C=C1\CCN(c2cc3c(Nc4ccc(Oc5ccc6c(c5)ncn6C)c(F)c4)ncnc3cn2)C1=O` [Compound 128, (3E)-3-[2-(dimethylamino)ethylidene]-1-[4-({3-fluoro-4-[(1-methyl-1,3-benzodiazol-5-yl)oxy]phenyl}amino)pyrido[3,4-d]pyrimidin-6-yl]pyrrolidin-2-one], in assay [1], the GI50 was found to be 7.9 nM. Also, the half-inhibitory concentration (IC50) is 21.4 nM in assay [2] and more than 10000 nM in assay [3].

On to `CN(C)C/C=C1\CCN(c2cc3c(Nc4ccc(Oc5ccn6ncnc6c5)c(F)c4)ncnc3cn2)C1=O` [Compound 129, (3E)-3-[2-(dimethylamino)ethylidene]-1-{4-[(3-fluoro-4-{[1,2,4]triazolo[1,5-a]pyridin-7-yloxy}phenyl)amino]pyrido[3,4-d]pyrimidin-6-yl}pyrrolidin-2-one], for which the GI50 in assay [1] was determined as 19.3 nM. Further, the IC50 worked out at 11.9 nM in assay [2] and 2320 nM in assay [3].

Consider `Cc1cc(Nc2ncnc3ccc(N4CC/C(=C\CN(C)C)C4=O)nc23)ccc1Oc1cncc(F)c1` [Compound 130, (3E)-3-[2-(dimethylamino)ethylidene]-1-[4-({4-[(5-fluoropyridin-3-yl)oxy]-3-methylphenyl}amino)pyrido[3,2-d]pyrimidin-6-yl]pyrrolidin-2-one], for which the GI50 in assay [1] was 17.8 nM. The concentration for half-maximal inhibition (IC50) in assay [2] came out at 40.6 nM; in assay [3], 187 nM.

`CN(C)C/C=C1\CCN(c2cc3c(Nc4cc(Cl)c(Oc5ccn6ncnc6c5)cc4F)ncnc3cn2)C1=O` [Compound 133, (E)-1-(4-((4-([1,2,4]triazolo[1,5-a]pyridin-7-yloxy)-5-chloro-2-fluorophenyl)amino)pyrido[3,4-d]pyrimidin-6-yl)-3-(2-(dimethylamino)ethylidene)pyrrolidin-2-one]: the GI50 in assay [1] is 16.9 nM. For the same molecule, the IC50 worked out at 10.9 nM in assay [2] and 1140 nM in assay [3].

Take `Cc1cc(Nc2ncnc3cnc(N4CC/C(=C\C5CN(C)C5)C4=O)cc23)c(F)cc1Oc1ccn2ncnc2c1` [Compound 138, (3E)-1-{4-[(2-fluoro-5-methyl-4-{[1,2,4]triazolo[1,5-a]pyridin-7-yloxy}phenyl)amino]pyrido[3,4-d]pyrimidin-6-yl}-3-[(1-methylazetidin-3-yl)methylidene]pyrrolidin-2-one]: the GI50 in assay [1] was found to be 99.6 nM. In addition, the IC50 in assay [2] is 16.8 nM; in assay [3], more than 10000 nM.

Turning to `Cc1cc(Nc2ncnc3ccc(N4CC/C(=C\C5CN(C)C5)C4=O)nc23)ccc1Oc1ccn2ncnc2c1` [Compound 139, (3E)-1-{4-[(3-methyl-4-{[1,2,4]triazolo[1,5-a]pyridin-7-yloxy}phenyl)amino]pyrido[3,2-d]pyrimidin-6-yl}-3-[(1-methylazetidin-3-yl)methylidene]pyrrolidin-2-one], the GI50 in assay [1] turned out to be 15.7 nM. Moreover, the IC50 in assay [2] was 14.3 nM; in assay [3], more than 10000 nM.

As to `CN(C)C/C=C1\CCN(c2cc3c(Nc4cc(F)c(Oc5ccn6ncnc6c5)cc4F)ncnc3cn2)C1=O` [Compound 140, (3E)-1-{4-[(2,5-difluoro-4-{[1,2,4]triazolo[1,5-a]pyridin-7-yloxy}phenyl)amino]pyrido[3,4-d]pyrimidin-6-yl}-3-[2-(dimethylamino)ethylidene]pyrrolidin-2-one], the GI50 in assay [1] was found to be 78.1 nM. Moreover, the 50% inhibitory concentration (IC50) was 20.5 nM in assay [2] and more than 10000 nM in assay [3].
